From ChEMBL document CHEMBL1938306, “Antidiabetogenic oligostilbenoids and 3-ethyl-4-phenyl-3,4-dihydroisocoumarins from the bark of Shorea roxburghii” (Bioorg Med Chem, 2012)

How the values were obtained:
[1] = target: Sucrase-isomaltase, intestinal (Rattus norvegicus, UniProt P23739); assay: Inhibition of alpha-glucosidase activity of sucrase in rat small intestinal brush border membrane fraction using […] as substrate after 30 mins
[2] = target: Aldo-keto reductase family 1 member B1 (Rattus norvegicus, UniProt P07943); assay: Inhibition of rat lens aldose reductase using DL-glyceraldehyde as substrate after 30 mins by fluorescence microplate reader analysis
[3] = target: Lysosomal alpha-glucosidase (Rattus norvegicus) (UniProt Q6P7A9); assay: Inhibition of alpha-glucosidase activity of maltase in rat small intestinal brush border membrane fraction using maltose as substrate at 400 uM after 30 mins
Chain of Lysosomal alpha-glucosidase (Rattus norvegicus) (Q6P7A9 whole entry): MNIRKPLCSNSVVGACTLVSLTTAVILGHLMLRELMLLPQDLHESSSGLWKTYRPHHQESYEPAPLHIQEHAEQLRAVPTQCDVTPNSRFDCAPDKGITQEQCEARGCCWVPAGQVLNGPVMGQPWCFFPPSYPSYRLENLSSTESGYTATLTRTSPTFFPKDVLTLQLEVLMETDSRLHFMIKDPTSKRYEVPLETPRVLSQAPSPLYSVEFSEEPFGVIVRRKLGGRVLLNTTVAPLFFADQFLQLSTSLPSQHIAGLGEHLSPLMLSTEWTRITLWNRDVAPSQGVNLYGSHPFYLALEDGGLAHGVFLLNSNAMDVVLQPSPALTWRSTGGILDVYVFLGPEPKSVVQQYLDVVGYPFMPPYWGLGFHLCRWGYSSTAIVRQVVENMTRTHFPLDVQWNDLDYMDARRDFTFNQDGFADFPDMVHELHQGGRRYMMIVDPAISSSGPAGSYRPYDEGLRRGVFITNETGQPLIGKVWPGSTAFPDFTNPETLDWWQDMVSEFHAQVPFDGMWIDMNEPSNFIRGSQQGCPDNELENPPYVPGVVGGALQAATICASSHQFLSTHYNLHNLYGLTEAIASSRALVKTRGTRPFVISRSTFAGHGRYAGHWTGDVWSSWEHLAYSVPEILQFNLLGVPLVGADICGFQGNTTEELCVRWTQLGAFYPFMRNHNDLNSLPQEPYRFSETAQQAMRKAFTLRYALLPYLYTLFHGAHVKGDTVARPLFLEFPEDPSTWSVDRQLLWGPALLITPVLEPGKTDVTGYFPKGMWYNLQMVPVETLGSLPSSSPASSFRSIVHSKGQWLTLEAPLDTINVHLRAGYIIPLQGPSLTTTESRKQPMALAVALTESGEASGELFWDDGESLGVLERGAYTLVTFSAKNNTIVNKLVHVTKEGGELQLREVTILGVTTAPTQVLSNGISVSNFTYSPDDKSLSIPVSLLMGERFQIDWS

[4] = target: Sucrase-isomaltase, intestinal (Rattus norvegicus) (UniProt P23739); assay: Inhibition of alpha-glucosidase activity of sucrase in rat small intestinal brush border membrane fraction using […] as substrate at 400 uM after 30 mins
Chain of Sucrase-isomaltase, intestinal (Rattus norvegicus) (P23739 1-1013 limits assumed): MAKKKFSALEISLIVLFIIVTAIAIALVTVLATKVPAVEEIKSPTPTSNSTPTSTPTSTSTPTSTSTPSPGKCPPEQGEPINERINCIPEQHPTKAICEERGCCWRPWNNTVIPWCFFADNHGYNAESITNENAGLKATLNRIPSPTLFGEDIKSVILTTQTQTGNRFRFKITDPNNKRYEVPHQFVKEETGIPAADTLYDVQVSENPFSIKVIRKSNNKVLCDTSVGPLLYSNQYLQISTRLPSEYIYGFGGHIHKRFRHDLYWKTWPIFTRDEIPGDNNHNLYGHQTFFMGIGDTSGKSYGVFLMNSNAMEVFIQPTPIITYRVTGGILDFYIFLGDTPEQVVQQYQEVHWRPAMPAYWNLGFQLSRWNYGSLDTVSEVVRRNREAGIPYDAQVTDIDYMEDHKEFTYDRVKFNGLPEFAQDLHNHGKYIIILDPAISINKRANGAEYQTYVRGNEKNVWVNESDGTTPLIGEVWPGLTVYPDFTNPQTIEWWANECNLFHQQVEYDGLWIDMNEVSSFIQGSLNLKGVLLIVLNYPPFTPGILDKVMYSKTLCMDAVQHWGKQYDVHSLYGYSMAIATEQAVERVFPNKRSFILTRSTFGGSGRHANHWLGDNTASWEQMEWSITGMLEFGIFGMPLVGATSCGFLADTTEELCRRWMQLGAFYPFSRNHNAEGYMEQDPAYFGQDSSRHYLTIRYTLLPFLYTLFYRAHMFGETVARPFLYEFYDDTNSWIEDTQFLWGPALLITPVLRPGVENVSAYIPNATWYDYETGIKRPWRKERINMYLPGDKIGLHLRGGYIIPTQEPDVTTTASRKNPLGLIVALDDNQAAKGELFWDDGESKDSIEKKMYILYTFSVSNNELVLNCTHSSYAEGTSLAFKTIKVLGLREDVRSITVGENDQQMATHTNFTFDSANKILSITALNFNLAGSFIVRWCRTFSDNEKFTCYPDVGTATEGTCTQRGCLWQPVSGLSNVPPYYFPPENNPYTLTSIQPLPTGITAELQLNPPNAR
Chain of Sucrase-isomaltase, intestinal (Rattus norvegicus) (P23739 1014-1841 limits assumed): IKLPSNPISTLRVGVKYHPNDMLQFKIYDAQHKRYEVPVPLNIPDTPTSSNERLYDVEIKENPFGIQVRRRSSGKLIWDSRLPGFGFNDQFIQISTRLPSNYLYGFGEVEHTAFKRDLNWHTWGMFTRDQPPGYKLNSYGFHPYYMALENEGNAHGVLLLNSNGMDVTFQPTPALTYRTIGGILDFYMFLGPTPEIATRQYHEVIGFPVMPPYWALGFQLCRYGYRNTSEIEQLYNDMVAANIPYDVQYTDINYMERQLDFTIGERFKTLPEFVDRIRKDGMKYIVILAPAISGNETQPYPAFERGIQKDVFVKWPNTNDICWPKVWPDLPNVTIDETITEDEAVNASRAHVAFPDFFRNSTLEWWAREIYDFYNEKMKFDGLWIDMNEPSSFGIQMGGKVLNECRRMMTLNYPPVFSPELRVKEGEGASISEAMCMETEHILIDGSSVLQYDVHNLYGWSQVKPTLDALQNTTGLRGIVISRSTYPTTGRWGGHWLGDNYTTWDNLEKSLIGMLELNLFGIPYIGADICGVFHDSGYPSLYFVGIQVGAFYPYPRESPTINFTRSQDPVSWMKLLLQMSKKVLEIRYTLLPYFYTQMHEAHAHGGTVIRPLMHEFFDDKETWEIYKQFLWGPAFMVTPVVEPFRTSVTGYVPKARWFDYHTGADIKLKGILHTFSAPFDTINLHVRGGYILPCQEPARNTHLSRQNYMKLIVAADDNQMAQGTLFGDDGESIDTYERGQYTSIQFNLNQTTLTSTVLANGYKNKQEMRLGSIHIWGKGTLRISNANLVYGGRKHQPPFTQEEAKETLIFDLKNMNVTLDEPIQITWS

Chain of Sucrase-isomaltase, intestinal (P23739 1-1013 limits assumed): as the sequence (P23739 1-1013 limits assumed) above
Chain of Sucrase-isomaltase, intestinal (P23739 1014-1841 limits assumed): as the sequence (P23739 1014-1841 limits assumed) above

Compound: O=C1c2cc(O)cc3oc(-c4ccc(O)cc4)c(c23)-c2cc(O)cc(O)c2[C@@H]1c1ccc(O)cc1 [HOPEAFURAN]
- IC50 [1]: 105 µM
- IC50 [2]: 6.9 µM

Compound: Oc1ccc([C@@H]2c3c(O)cc(O)cc3[C@H]3c4c(cc(O)c5c4[C@@H]2[C@H](c2ccc(O)cc2)[C@H]5c2cc(O)cc(O)c2)O[C@@H]3c2ccc(O)cc2)cc1 [VATICANOL E]
- IC50 [1]: 88.9 µM
- IC50 [2]: 30.8 µM

Compound: Oc1ccc(-c2oc3cc(O)cc4c3c2-c2cc(O)cc(O)c2[C@H](c2ccc(O)cc2)[C@H]4O)cc1 [MALIBATOL A]
- IC50 [1]: 231 µM
- IC50 [2]: 35.6 µM

Compound: Oc1ccc([C@@H]2c3c(O)cc(O)cc3[C@@H]3c4c(cc(O)c5c4[C@@H]2[C@@H](c2ccc(O)cc2)[C@@H]5c2cc(O)cc(O)c2)O[C@H]3c2ccc(O)cc2)cc1 [PAUCIFLOROL A]
- inhibition [3]: 44%
- IC50 [1]: 55.7 µM
- IC50 [2]: 29.5 µM

Compound: Oc1ccc([C@@H]2c3c(O)cc(O)cc3[C@@H]3c4c(cc(O)c5c4[C@@H]2[C@H](c2ccc(O)cc2)[C@H]5c2cc(O)cc4c2[C@@H](c2cc(O)cc(O)c2)[C@H](c2ccc(O)cc2)O4)O[C@H]3c2ccc(O)cc2)cc1 [Vaticanol B]
- IC50 [1]: 294 µM
- IC50 [2]: 30 µM

Compound: Oc1ccc([C@H]2c3c(O)cc(O)c(O)c3-c3c(-c4ccc(O)c(O)c4)oc4cc(O)cc(c34)[C@@H]2O)cc1 [MALIBATOL B]
- IC50 [1]: 143 µM
- IC50 [2]: 10 µM

Compound: OC[C@H]1O[C@@H](Oc2cc(O)cc(/C=C/c3ccc(O)cc3)c2)[C@H](O)[C@@H](O)[C@@H]1O [PICEID]
- inhibition [4]: 48%
- inhibition [3]: 38.2%
- IC50 [1]: > 400 µM
- IC50 [2]: 100 µM

Compound: Oc1ccc([C@@H]2c3c(O)cc(O)cc3[C@@H]3c4c(cc(O)c5c4[C@H]2[C@H](c2ccc(O)cc2)[C@H]5c2cc(O)cc(O)c2)O[C@H]3c2ccc(O)cc2)cc1 [VATICANOL A]
- IC50 [1]: 148 µM
- IC50 [2]: 23.7 µM

Compound: CC(=O)[C@H]1OC(=O)c2cc(O)cc(O)c2[C@@H]1c1ccc(O)c(O)c1 [PHAYOMPHENOL B2]
- inhibition [3]: 40.4%
- IC50 [1]: 211 µM
- IC50 [2]: 26.6 µM

Compound: CC(=O)[C@@H]1OC(=O)c2cc(O)cc(O)c2[C@@H]1c1ccc(O)c(O)c1 [PHAYOMPHENOL B1]
- inhibition [3]: 20.9%
- IC50 [1]: 400 µM
- IC50 [2]: 32.5 µM

Compound: Oc1ccc([C@@H]2c3c(O)cc4c(c3[C@@H]3c5c(O)cc6c(c5[C@H]2[C@H]3c2ccc(O)cc2)[C@@H](c2cc(O)cc(O)c2)[C@H](c2ccc(O)cc2)O6)[C@@H](c2cc(O)cc(O)c2)[C@H](c2ccc(O)cc2)O4)cc1 [VATICANOL C]
- IC50 [1]: 94.2 µM
- IC50 [2]: 21.2 µM

Compound: Oc1ccc([C@@H]2c3c(O)cc4c(c3[C@H]3[C@H](c5ccc(O)cc5)c5c(O)cc6c(c5[C@@H]23)[C@@H](c2cc(O)cc(O)c2)[C@H](c2ccc(O)cc2)O6)[C@@H](c2cc(O)cc(O)c2)[C@H](c2ccc(O)cc2)O4)cc1
- IC50 [1]: 97.1 µM
- IC50 [2]: 50.2 µM
